12 compounds from PubChem BioAssay (NCI) can be followed below.

SMILES strings stand for the structures.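 Test compounds were applied to cells in 96-well plates for 48 hours at 5 doses. At the TGI there is no net growth.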

Among the test systems are UACC-62 melanoma; MCF7 breast; SK-MEL-28 melanoma; SNB-75 CNS; SK-OV-3 ovarian; HCT-116 colon; MALME-3M melanoma; SN12C renal; TK-10 renal; SNB-19 CNS; DU-145 prostate; UACC-257 melanoma; SK-MEL-2 melanoma.
Common to all, as to assay: NCI tumour cell line growth inhibition, 48 h

Regarding `CO[C@@]12C[C@H](CNC(=O)c3ccc[nH]3)O[C@@H]1NC(=O)N2`, the TGI with UACC-62 melanoma, with MCF7 breast, in the test on SK-MEL-28 melanoma, with SNB-75 CNS, in the test on SK-OV-3 ovarian and in the test on HCT-116 colon was > 100 µM each time. The TGI with MALME-3M melanoma, in the test on SN12C renal, in the test on TK-10 renal, with SNB-19 CNS, with DU-145 prostate and in the test on UACC-257 melanoma was > 100 µM each time. The TGI in the test with SK-MEL-2 melanoma was > 100 µM.
As to `CN(CCN)[C@H](CSSC[C@@H](c1ccccc1O)N(C)CCN)c1ccccc1O`, the TGI in the test with UACC-62 melanoma was 24.5 µM; in the test with MCF7 breast, > 52.7 µM; with SK-MEL-28 melanoma, 33.5 µM; in the test with SNB-75 CNS, 29 µM; with SK-OV-3 ovarian, 25 µM; in the test on HCT-116 colon, 20.4 µM. The TGI in the test with MALME-3M melanoma came to 33.3 µM; in the test on SN12C renal, 23.2 µM; in the test on TK-10 renal, 30.7 µM; in the test with SNB-19 CNS it was 26.2 µM; with DU-145 prostate, 33.1 µM; with UACC-257 melanoma, 32.8 µM. The TGI in the test with SK-MEL-2 melanoma came to 38.9 µM.
For `ClC1=NSSC1(Cl)Cl`, the TGI was > 100 µM in the test with UACC-62 melanoma; > 100 µM with MCF7 breast; > 100 µM in the test on SNB-75 CNS; > 100 µM with HCT-116 colon; > 100 µM with MALME-3M melanoma; 41.7 µM with SN12C renal. The TGI in the test on SNB-19 CNS, with DU-145 prostate, in the test with UACC-257 melanoma and with SK-MEL-2 melanoma was > 100 µM each time.
Consider `CC(=O)OC1CCn2c1nc1cc([N+](=O)[O-])c(C)cc12` (stereo unspecified), for which the TGI with UACC-62 melanoma, in the test with MCF7 breast, in the test on SK-MEL-28 melanoma, in the test with SNB-75 CNS, in the test with SK-OV-3 ovarian and in the test with HCT-116 colon was > 100 µM in each case. The TGI in the test on MALME-3M melanoma, in the test with SN12C renal, in the test on SNB-19 CNS, with DU-145 prostate, in the test with UACC-257 melanoma and in the test with SK-MEL-2 melanoma was > 100 µM each time.
Take `CC1CC(=O)N(N(C)C)C2(C#N)C(=O)N=C(N)C12C#N` (stereo unspecified): the TGI in the test with UACC-62 melanoma, in the test with MCF7 breast, in the test on SNB-75 CNS, in the test on SK-OV-3 ovarian, in the test on HCT-116 colon and in the test with MALME-3M melanoma was > 100 µM in each case. Also, the TGI in the test with SN12C renal, in the test with TK-10 renal, in the test on SNB-19 CNS, in the test with DU-145 prostate, in the test on UACC-257 melanoma and in the test on SK-MEL-2 melanoma was > 100 µM throughout.
In the case of `Cc1ccc(C(=O)N/N=C(\N=Nc2ccc([N+](=O)[O-])cc2)c2ccc(N(CCC#N)CCC#N)cc2C)cc1`, the TGI in the test with MCF7 breast, in the test on SK-MEL-28 melanoma, in the test on SNB-75 CNS, with SK-OV-3 ovarian, in the test on HCT-116 colon and with MALME-3M melanoma was > 100 µM each time. In addition, the TGI with SN12C renal, in the test on TK-10 renal, with SNB-19 CNS, in the test with DU-145 prostate, in the test on UACC-257 melanoma and in the test with SK-MEL-2 melanoma was > 100 µM throughout.
Take `COc1cc2c(c(OC)c1OC)C(=O)c1c(O)cc(C)c(OC)c1C2=O`: the TGI in the test on MCF7 breast, in the test with SK-MEL-28 melanoma, in the test on SNB-75 CNS, in the test with HCT-116 colon, with MALME-3M melanoma and with SN12C renal was > 100 µM throughout. Also, the TGI in the test with TK-10 renal, in the test on SNB-19 CNS, in the test with DU-145 prostate, in the test with UACC-257 melanoma and in the test with SK-MEL-2 melanoma was > 100 µM each time.
Consider `CNC(=O)[C@H](Cc1ccccc1)NC(=O)N(CCC#N)CCN(C(=O)N[C@@H](Cc1ccccc1)C(=O)OC)c1ccccc1`, for which the TGI in the test on UACC-62 melanoma, in the test with MCF7 breast, in the test on SK-MEL-28 melanoma, in the test on SNB-75 CNS, in the test with SK-OV-3 ovarian and with HCT-116 colon was > 100 µM throughout. The TGI with MALME-3M melanoma, in the test with TK-10 renal, with SNB-19 CNS, with DU-145 prostate, in the test with UACC-257 melanoma and in the test with SK-MEL-2 melanoma was > 100 µM throughout.
As to `c1ccc(C(Oc2noc3ccccc23)c2ccccc2)cc1`, the TGI in the test with UACC-62 melanoma is > 100 µM; with MCF7 breast it was > 100 µM; in the test on SK-MEL-28 melanoma it was > 100 µM; in the test with SNB-75 CNS, 37 µM; with SK-OV-3 ovarian it was > 100 µM; in the test with HCT-116 colon, > 100 µM. Besides, the TGI with MALME-3M melanoma was > 100 µM; in the test on SN12C renal it was > 100 µM; in the test on TK-10 renal, > 100 µM; with SNB-19 CNS it was > 100 µM; with DU-145 prostate, 78.6 µM; in the test with UACC-257 melanoma it was 99.6 µM.
With `CN(C)C(=O)C(F)(F)C(c1ccccc1Br)C1C(=O)N(C)C(=O)N(C)C1=O` (stereo unspecified), the TGI in the test with UACC-62 melanoma, in the test with MCF7 breast, with SK-MEL-28 melanoma, in the test on SNB-75 CNS, in the test with SK-OV-3 ovarian and in the test on HCT-116 colon was > 100 µM throughout. The TGI with MALME-3M melanoma, in the test with TK-10 renal, with SNB-19 CNS, in the test with DU-145 prostate, with UACC-257 melanoma and in the test with SK-MEL-2 melanoma was > 100 µM each time.
In the case of `OCCc1ccsc1-c1sc(-c2cc(CCO)c(-c3sc(-c4cc(CCO)c(-c5sccc5CCO)s4)cc3CCO)s2)cc1CCO`, the TGI with UACC-62 melanoma stood at 3.41 µM; with MCF7 breast, 1.95 µM; in the test with SK-MEL-28 melanoma, 3.27 µM; in the test on SNB-75 CNS, 2.89 µM; in the test with SK-OV-3 ovarian it was 3.11 µM; in the test on HCT-116 colon, 2.33 µM. Further, the TGI was 2.36 µM in the test on MALME-3M melanoma; 3.15 µM in the test on TK-10 renal; 3.01 µM in the test on SNB-19 CNS; 4.53 µM in the test with DU-145 prostate; 2.9 µM with UACC-257 melanoma; 3.35 µM in the test on SK-MEL-2 melanoma.
On to `CSc1cc(Cl)c(C)cc1S(=O)(=O)NC(=O)NNc1ccc(C)cc1`, for which the TGI in the test on MCF7 breast, in the test with SK-MEL-28 melanoma, in the test on SNB-75 CNS, in the test on SK-OV-3 ovarian, with HCT-116 colon and in the test on MALME-3M melanoma was > 100 µM in each case. Moreover, the TGI in the test with SN12C renal, in the test with SNB-19 CNS, in the test with DU-145 prostate and with SK-MEL-2 melanoma was > 100 µM throughout.
